# Measured values taken from patent US6720346B2, “Thiazole benzamide derivatives and pharmaceutical compositions for inhibiting cell proliferation” (Agouron Pharmaceuticals, Inc., priority 2001, dated 2004).
# Where a name gives a salt, the structure may show the parent alone.
# Legend:
# [1] = target: T1, human CDK4/cyclin D3 (Homo sapiens, UniProt P11802); experiment: Inhibition of CDK4/cyclin D retinoblastoma kinase activity (Ki; % inhibition); type: biochemical; conditions: for Ki: apparent Ki, CDK4/cyclin D3, Rb substrate
# T1 construct: made in house; host or cells: insect cells co-infected with baculovirus vectors
# T1 sequence (P11802 whole entry): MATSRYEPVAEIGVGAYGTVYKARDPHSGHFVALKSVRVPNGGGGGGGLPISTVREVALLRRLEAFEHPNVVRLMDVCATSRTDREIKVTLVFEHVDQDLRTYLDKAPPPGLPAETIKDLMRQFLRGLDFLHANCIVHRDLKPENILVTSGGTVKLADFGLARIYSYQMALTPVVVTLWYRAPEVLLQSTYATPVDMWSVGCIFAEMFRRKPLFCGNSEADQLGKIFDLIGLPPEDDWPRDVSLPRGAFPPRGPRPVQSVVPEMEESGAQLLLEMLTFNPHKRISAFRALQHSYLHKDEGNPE
# T1 sequence (P30281 1-264 partner limits assumed): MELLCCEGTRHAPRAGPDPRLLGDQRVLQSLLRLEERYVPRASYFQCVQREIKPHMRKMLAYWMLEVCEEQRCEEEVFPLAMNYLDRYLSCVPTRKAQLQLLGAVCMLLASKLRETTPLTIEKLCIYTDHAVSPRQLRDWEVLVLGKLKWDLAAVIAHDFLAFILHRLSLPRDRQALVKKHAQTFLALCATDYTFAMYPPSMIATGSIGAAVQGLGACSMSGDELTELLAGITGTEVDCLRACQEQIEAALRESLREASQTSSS
# In short: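 Insect-cell-expressed CDK4 with truncated cyclin D3 (1-264), 5 nM, phosphorylating His-tagged Rb fragment (386-928) with 25 μM [32/33P]ATP at pH 7.4, 30 °C, 20 min (60 min for tight binders). Filter capture, phosphorimager read; % inhibition at 30 nM compound, Ki from competitive or tight-binding fits.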
# [2] = test system: HCT-116 cell line; experiment: Inhibition of cell growth, MTT tetrazolium salt assay; type: cell-based; conditions: for IC50: Homo sapiens, HCT-116, 120 h, MTT, three to five days
# In short: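 HCT-116 cells in McCoy's 5A were dosed 4 h after plating with compounds in 0.5% DMSO and grown 3–5 days at 37 °C. Then 0.2 mg/mL MTT was added for 4 h and formazan absorbance read at 540 nm. IC50/IC90 came from semi-log plots against DMSO-only controls.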
# [3] = target: T2, CDK2/cyclin A (Homo sapiens, UniProt P24941); experiment: Inhibition of CDK2/cyclin A retinoblastoma kinase activity (Ki; % inhibition); type: biochemical; conditions: for Ki: apparent Ki, CDK2/cyclin A, Rb substrate
# T2 construct: made in house; host or cells: CDK2: insect cells (baculovirus); cyclin A: E. coli
# In short: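 Radiometric filter assay of CDK2/proteolyzed cyclin A (baculovirus-expressed human CDK2, 10 or 19 nM) phosphorylating an Rb fragment with 25 μM [³²P/³³P]ATP in pH 7.4 HEPES, 2% DMSO, at 30 °C for 60 or 75 min under initial-rate conditions. Library compounds screened at 30 nM for % inhibition; apparent Ki from concentration series fit to competitive or tight-binding inhibition equations.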
# [4] = HCT-116 cells, 0.25 μM compound
Structure (SMILES),CDK4 % Inhibition at 0.03 μM ([1]; at 0.03 μM) [%],"HCT-116 % Inhibition at 0.25 μM ([2]; HCT-116, at 0.25 μM) [%]",CDK2 % Inhibition at 0.03 μM ([3]; at 0.03 μM) [%],CDK4 % Inhibition at 0.03 μM ([1]; 0.03 μM compound) [%],"HCT-116 % Inhibition at 0.1 μM ([2]; HCT-116 cells, 0.1 μM compound) [%]","HCT-116 % Inhibition at 0.25 μM [2, 4] [%]",CDK2 % Inhibition at 0.03 μM ([3]; 0.03 μM compound) [%],further results
CC(=O)NC1CCN(C(=O)c2ccc(Nc3nc(N)c(C(=O)c4c(F)cccc4F)s3)cc2)C1 (centres unmarked) [Example G73],18,56,19,,,,,
CCCN(CCO)C(=O)c1ccc(Nc2nc(N)c(C(=O)c3c(F)cccc3F)s2)cc1 [Example G233],,,,21,16,48,10,
Nc1nc(Nc2ccc(C(=O)NCCNc3ccccc3)cc2)sc1C(=O)c1c(F)cccc1F [Example G134],38,89,60,,,,,"HCT-116 % Inhibition at 0.1 μM ([2]; HCT-116, at 0.1 μM): 1%"
CC(C)CCNC(=O)c1ccc(Nc2nc(N)c(C(=O)c3c(F)cccc3F)s2)cc1 [Example G247],,,,23,12,54,17,
Nc1nc(Nc2ccc(C(=O)Nc3cccc(Br)c3)cc2)sc1C(=O)c1c(F)cccc1F [Example G287],,,,7,9,32,−8,
CN(C(=O)c1ccc(Nc2nc(N)c(C(=O)c3c(F)cccc3F)s2)cc1)C1CCCC1 [Example G80],7,36,3,,,,,
"Cc1ccsc1C(=O)c1sc(Nc2ccc(C(=O)N[C@H](C)CN(C)C)cc2)nc1N [Example A62, 4-{4-Amino-5-[1-(3-methyl-thiophen-2-yl)-methanoyl]-thiazol-2-ylamino}-N-(2-dimethylamino-1R-methyl-ethyl)-benzamide Trifluoroacetic Acid Salt]",,,,,,,,Ki [1]: 120 nM; IC50 [2]: 44 nM; Ki [3]: 2.8 nM
CCN(C(=O)c1ccc(Nc2nc(N)c(C(=O)c3c(F)cccc3F)s2)cc1)C1CCCCC1 [Example G312],,,,5,8,58,−10,
Nc1nc(Nc2ccc(C(=O)N3CCN(CCCO)CC3)cc2)sc1C(=O)c1c(F)cccc1F [Example G12],10,48,−14,,,,,
"Nc1nc(Nc2ccc(C(=O)NCCO)cc2)sc1C(=O)c1c(Cl)cccc1Cl [Example B2, 4-[4-Amino-5-(2,6-dichloro-benzoyl)-thiazol-2-ylamino]-N-(2-hydroxy-ethyl)-benzamide]",,,,,,,,Ki [1]: 18 nM; IC50 [2]: 3600 nM; Ki [3]: 96 nM
Nc1nc(Nc2ccc(C(=O)NC3CCc4ccccc43)cc2)sc1C(=O)c1c(F)cccc1F (centres unmarked) [Example G95],18,63,12,,,,,"HCT-116 % Inhibition at 0.1 μM ([2]; HCT-116, at 0.1 μM): 32%"
Nc1nc(Nc2ccc(C(=O)NCc3ccc4c(c3)OCO4)cc2)sc1C(=O)c1c(F)cccc1F [Example G172],54,61,36,,,,,"HCT-116 % Inhibition at 0.1 μM ([2]; HCT-116, at 0.1 μM): 37%"
CC(O)c1cccc(NC(=O)c2ccc(Nc3nc(N)c(C(=O)c4c(F)cccc4F)s3)cc2)c1 (centres unmarked) [Example G222],,,,27,8,61,30,
Cc1cccc(CNC(=O)c2ccc(Nc3nc(N)c(C(=O)c4c(F)cccc4F)s3)cc2)c1C [Example G294],,,,29,15,74,30,
"CC1(C)CC(CNC(=O)c2ccc(Nc3nc(N)c(C(=O)c4c(F)cccc4F)s3)cc2)C(C)(C)N1 (centres unmarked) [Example A56, 4-[4-Amino-5-(2,6-difluoro-benzoyl)-thiazol-2-ylamino]-N-(2,2,5,5-tetramethyl-pyrrolidin-3R,S-ylmethyl)-benzamide Dihydrochloride Salt]",,,,,,,,Ki [1]: 8 nM; IC50 [2]: 4500 nM; Ki [3]: 67 nM
COC(=O)c1ccc(NC(=O)c2ccc(Nc3nc(N)c(C(=O)c4c(F)cccc4F)s3)cc2)cc1 [Example G61],19,58,19,,,,,
"CN1CC(CNC(=O)c2ccc(Nc3nc(N)c(C(=O)c4c(F)cccc4F)s3)cc2)C1 [Example A75, 4-[4-Amino-5-(2,6-difluoro-benzoyl)-thiazol-2-ylamino]-N-(1-methyl-azetidin-3-ylmethyl)-benzamide]",,,,,,,,Ki [1]: 51 nM; IC50 [2]: 1900 nM; Ki [3]: 7.3 nM

Structure (SMILES),CDK4 % Inhibition at 0.03 μM ([1]; at 0.03 μM) [%],"HCT-116 % Inhibition at 0.25 μM ([2]; HCT-116, at 0.25 μM) [%]",CDK2 % Inhibition at 0.03 μM ([3]; at 0.03 μM) [%],CDK4 % Inhibition at 0.03 μM ([1]; 0.03 μM compound) [%],"HCT-116 % Inhibition at 0.1 μM ([2]; HCT-116 cells, 0.1 μM compound) [%]","HCT-116 % Inhibition at 0.25 μM [2, 4] [%]",CDK2 % Inhibition at 0.03 μM ([3]; 0.03 μM compound) [%],further results
"Nc1nc(Nc2ccc(C(=O)NCCN3CCCC3)cc2)sc1C(=O)c1c(F)cccc1F [Example A35, 4-[4-Amino-5-(2,6-difluoro-benzoyl)-thiazol-2-ylamino]-N-(2-pyrrolidin-1-yl-ethyl)-benzamide]",,,,,,,,Ki [1]: 6 nM; IC50 [2]: 120 nM; Ki [3]: 54 nM
CN(C)CCNC(=O)c1ccc(Nc2nc(N)c(C(=O)c3c(F)cccc3F)s2)cc1 [Example G149],36,82,23,,,,,"HCT-116 % Inhibition at 0.1 μM ([2]; HCT-116, at 0.1 μM): 10%"
COC(=O)[C@H](C)NC(=O)c1ccc(Nc2nc(N)c(C(=O)c3c(F)cccc3F)s2)cc1 [Example G145],18,68,19,,,,,"HCT-116 % Inhibition at 0.1 μM ([2]; HCT-116, at 0.1 μM): 0%"
C[C@H](NC(=O)c1ccc(Nc2nc(N)c(C(=O)c3c(F)cccc3F)s2)cc1)[C@@H]1CCCN1C [Example A69],,,,,,,,Ki [1]: 234 nM; IC50 [2]: 2100 nM; Ki [3]: 14.6 nM
CCCN(CCC)C(=O)c1ccc(Nc2nc(N)c(C(=O)c3c(F)cccc3F)s2)cc1 [Example G248],,,,17,13,55,8,
NC(=O)c1cccc(NC(=O)c2ccc(Nc3nc(N)c(C(=O)c4c(F)cccc4F)s3)cc2)c1 [Example G6],10,47,−1,,,,,
"CN1CCC[C@@H]1CNC(=O)c1ccc(Nc2nc(N)c(C(=O)c3c(F)cccc3F)s2)cc1 [Example A34, 4-[4-Amino-5-(2,6-difluoro-benzoyl)-thiazol-2-ylamino]-N-(1-methyl-pyrrolidin-2R-ylmethyl)-benzamide]",,,,,,,,Ki [1]: 10 nM; IC50 [2]: 140 nM; Ki [3]: 99 nM
Nc1nc(Nc2ccc(C(=O)N[C@@H]3CCN(Cc4ccccc4)C3)cc2)sc1C(=O)c1c(F)cccc1F [Example C365],,,,22,34,93,8,
COc1ccccc1NC(=O)c1ccc(Nc2nc(N)c(C(=O)c3c(F)cccc3F)s2)cc1 [Example G23],7,63,8,,,,,
"Cc1ccncc1C(=O)c1sc(Nc2ccc(C(=O)NC[C@@H]3CCCN3C)cc2)nc1N [Example A59, 4-{4-Amino-5-[1-(4-methyl-pyridin-3-yl)methanoyl]-thiazol-2-ylamino}-N-(1-methyl-pyrrolidin-2S-ylmethyl)-benzamide Hydrochloride Salt]",,,,,,,,Ki [1]: 97 nM; IC50 [2]: 2900 nM; Ki [3]: 830 nM
Nc1nc(Nc2ccc(C(=O)NCCNc3ccc([N+](=O)[O-])cn3)cc2)sc1C(=O)c1c(F)cccc1F [Example G242],,,,49,34,69,43,
CCOC(=O)Cc1ccc(NC(=O)c2ccc(Nc3nc(N)c(C(=O)c4c(F)cccc4F)s3)cc2)cc1 [Example G130],11,77,1,,,,,"HCT-116 % Inhibition at 0.1 μM ([2]; HCT-116, at 0.1 μM): 0%"
Nc1nc(Nc2ccc(C(=O)Nc3cccc4cnccc34)cc2)sc1C(=O)c1c(F)cccc1F [Example G83],7,64,16,,,,,
Nc1nc(Nc2ccc(C(=O)NCCc3ccncc3)cc2)sc1C(=O)c1c(F)cccc1F [Example G268],,,,2,26,63,−11,
"CC(C)OCCNC(=O)c1ccc(Nc2nc(N)c(C(=O)c3c(F)cccc3F)s2)cc1 [Example A7, 4-[4-Amino-5-(2,6-difluoro-benzoyl)-thiazol-2-ylamino]-N-(2-isopropoxy-ethyl)-benzamide]",,,,,,,,Ki [1]: 26 nM; IC50 [2]: 410 nM; Ki [3]: 61 nM
CCC(CO)NC(=O)c1ccc(Nc2nc(N)c(C(=O)c3c(F)cccc3F)s2)cc1 (centres unmarked) [Example G156],24,,24,,,,,"HCT-116 % Inhibition at 0.1 μM ([2]; HCT-116, at 0.1 μM, 0.1 µM): 0%; HCT-116 % Inhibition at 0.25 μM ([2]; HCT-116, at 0.25 μM, 0.25 µM): 61%"
